Reference: article PMC5885031, “Chlamydia trachomatis dapF Encodes a Bifunctional Enzyme Capable of Both D-Glutamate Racemase and Diaminopimelate Epimerase Activities” (mBio, 2018)

Tests used:
Type in all cases: biochemical
[1] = target: T1, DapFCT-His (chlamydial DapF, DAP epimerase) (Chlamydia trachomatis, UniProt B0B802); experiment: glutamate racemase assay coupled to L-glutamate dehydrogenase (NADPH, […] nm); settings: 20 mM D-Glu, 10 uM PLP, 10 mM MgCl2, 20 mM Tris-Cl pH 8.0, 37 C; racemization to L-Glu
T1 construct: 6-His tag at 5' end (N-terminal), tag not removed; pTBSG vector, E. coli BL21(DE3); Ni-NTA purified; ~32 kDa
T1 sequence (B0B802 1-275): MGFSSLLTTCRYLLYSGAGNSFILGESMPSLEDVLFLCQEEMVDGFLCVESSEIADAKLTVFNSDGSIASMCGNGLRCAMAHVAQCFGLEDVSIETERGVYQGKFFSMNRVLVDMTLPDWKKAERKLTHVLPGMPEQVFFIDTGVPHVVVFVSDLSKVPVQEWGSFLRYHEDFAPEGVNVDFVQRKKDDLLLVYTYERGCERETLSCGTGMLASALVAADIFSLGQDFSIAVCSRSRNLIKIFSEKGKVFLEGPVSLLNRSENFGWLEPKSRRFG

[2] = target: T1, DapFCT-His (chlamydial DapF, DAP epimerase); experiment: as above; settings: 10 mM D-Glu as substrate, 10 uM PLP, 10 mM MgCl2, 20 mM Tris-Cl pH 8.0, 37 C; competing substrate
[3] = target: T1, DapFCT-His (chlamydial DapF, DAP epimerase); experiment: glutamate racemase coupled assay with and without PLP; settings: 10 uM PLP, D-Glu as substrate, 10 mM MgCl2, 20 mM Tris-Cl pH 8.0, 37 C; required for racemase activity

## N[C@H](CCC(=O)O)C(=O)O [D-Glu]
[1]
  glutamate racemase assay coupled to L-glutamate dehydrogenase (NADPH, 340 nm): Purified DapFCT-His was assayed for glutamate racemase activity with D-Glu as the substrate

## N[C@@H](CCC[C@H](N)C(=O)O)C(=O)O [L,L-DAP]
[2]
  % decrease of glutamate racemase activity at 10 mM L,L-DAP: 47%

## Cc1ncc(COP(=O)(O)O)c(C=O)c1O [pyridoxal phosphate]
[3]
  glutamate racemase coupled assay with and without PLP: D-Glu racemization to L-Glu was found to be PLP dependent (Fig. 4a)
